Measurements reported in PubChem BioAssay (NCI).
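Following 48 hours of exposure in 96-well plates, responses at five concentrations were used to interpolate endpoints linearly. TGI marks complete inhibition of growth.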

Experiments:
Test in all cases: NCI anticancer screen, dose series, 48 h
KM20L2 colon = system: KM20L2 colon
HOP-18 NSCLC = system: HOP-18 NSCLC
DMS 273 small cell lung = system: DMS 273 small cell lung
OVCAR-3 ovarian = system: OVCAR-3 ovarian
LXFL 529 NSCLC = system: LXFL 529 NSCLC
SR leukemia = system: SR leukemia
HCT-116 colon = system: HCT-116 colon
LOX IMVI melanoma = system: LOX IMVI melanoma
OVCAR-8 ovarian = system: OVCAR-8 ovarian
HOP-62 NSCLC = system: HOP-62 NSCLC
UO-31 renal = system: UO-31 renal
HL-60(TB) leukemia = system: HL-60(TB) leukemia
OVCAR-4 ovarian = system: OVCAR-4 ovarian
HT29 colon = system: HT29 colon
MALME-3M melanoma = system: MALME-3M melanoma
SK-MEL-2 melanoma = system: SK-MEL-2 melanoma
DMS 114 small cell lung = system: DMS 114 small cell lung
KM12 colon = system: KM12 colon
M14 melanoma = system: M14 melanoma
M19-MEL melanoma = system: M19-MEL melanoma
SF-295 CNS = system: SF-295 CNS
COLO 205 colon = system: COLO 205 colon
UACC-257 melanoma = system: UACC-257 melanoma
SW-620 colon = system: SW-620 colon
HOP-92 NSCLC = system: HOP-92 NSCLC
OVCAR-5 ovarian = system: OVCAR-5 ovarian
NCI-H460 lung = system: NCI-H460 lung
HCT-15 colon = system: HCT-15 colon
NCI-H226 lung = system: NCI-H226 lung
SN12C renal = system: SN12C renal
HCC-2998 colon = system: HCC-2998 colon
CAKI-1 renal = system: CAKI-1 renal
NCI-H23 lung = system: NCI-H23 lung
SNB-75 CNS = system: SNB-75 CNS
DLD-1 colon = system: DLD-1 colon
IGROV1 ovarian = system: IGROV1 ovarian
CCRF-CEM leukemia = system: CCRF-CEM leukemia
786-0 renal = system: 786-0 renal
K-562 leukemia = system: K-562 leukemia
SK-MEL-5 melanoma = system: SK-MEL-5 melanoma
SF-268 CNS = system: SF-268 CNS
A549 NSCLC = system: A549 NSCLC
U251 CNS = system: U251 CNS
NCI-H522 lung = system: NCI-H522 lung
SK-MEL-28 melanoma = system: SK-MEL-28 melanoma
SK-OV-3 ovarian = system: SK-OV-3 ovarian
UACC-62 melanoma = system: UACC-62 melanoma
RPMI-8226 leukemia = system: RPMI-8226 leukemia
MOLT-4 leukemia = system: MOLT-4 leukemia
SF-539 CNS = system: SF-539 CNS
ACHN renal = system: ACHN renal
RXF 393 renal = system: RXF 393 renal
TK-10 renal = system: TK-10 renal
EKVX NSCLC = system: EKVX NSCLC
XF 498 CNS = system: XF 498 CNS
A498 renal = system: A498 renal
SNB-19 CNS = system: SNB-19 CNS
SNB-78 CNS = system: SNB-78 CNS

COc1ccc(C(=O)C(C(=O)CCC(=O)Nc2ccc(C)c(C)c2)c2ccc(OC)cc2)cc1 (stereo not given)
TGI (KM20L2 colon): > 100 µM
TGI (HOP-18 NSCLC): > 100 µM
TGI (DMS 273 small cell lung): > 100 µM
TGI (OVCAR-3 ovarian): > 100 µM
TGI (LXFL 529 NSCLC): > 100 µM
TGI (SR leukemia): > 100 µM
TGI (HCT-116 colon): > 100 µM
TGI (LOX IMVI melanoma): > 100 µM
TGI (OVCAR-8 ovarian): > 100 µM
TGI (HOP-62 NSCLC): > 100 µM
TGI (UO-31 renal): > 100 µM
TGI (HL-60(TB) leukemia): > 100 µM
TGI (OVCAR-4 ovarian): > 100 µM
TGI (HT29 colon): > 100 µM
TGI (MALME-3M melanoma): > 100 µM
TGI (SK-MEL-2 melanoma): > 100 µM
TGI (DMS 114 small cell lung): > 100 µM
TGI (KM12 colon): > 100 µM
TGI (M14 melanoma): > 100 µM
TGI (M19-MEL melanoma): > 100 µM
TGI (SF-295 CNS): > 100 µM
TGI (COLO 205 colon): > 100 µM
TGI (UACC-257 melanoma): > 100 µM
TGI (SW-620 colon): > 100 µM
TGI (HOP-92 NSCLC): > 100 µM
TGI (OVCAR-5 ovarian): > 100 µM
TGI (NCI-H460 lung): > 100 µM
TGI (HCT-15 colon): > 100 µM
TGI (NCI-H226 lung): > 100 µM
TGI (SN12C renal): > 100 µM
TGI (HCC-2998 colon): > 100 µM
TGI (CAKI-1 renal): > 100 µM

[N-]=[N+]=Nc1cc(=O)oc2ccccc12
TGI (HOP-18 NSCLC): > 100 µM
TGI (DMS 273 small cell lung): > 100 µM
TGI (NCI-H23 lung): > 100 µM
TGI (SNB-75 CNS): > 100 µM
TGI (DLD-1 colon): > 100 µM
TGI (IGROV1 ovarian): > 100 µM
TGI (CCRF-CEM leukemia): > 100 µM
TGI (LXFL 529 NSCLC): > 100 µM
TGI (786-0 renal): > 100 µM
TGI (SR leukemia): > 100 µM
TGI (HCT-116 colon): > 100 µM
TGI (LOX IMVI melanoma): > 100 µM
TGI (K-562 leukemia): > 100 µM
TGI (OVCAR-8 ovarian): > 100 µM
TGI (SK-MEL-5 melanoma): > 100 µM
TGI (SF-268 CNS): > 100 µM
TGI (HOP-62 NSCLC): > 100 µM
TGI (A549 NSCLC): > 100 µM
TGI (UO-31 renal): > 100 µM
TGI (U251 CNS): > 100 µM
TGI (NCI-H522 lung): > 100 µM
TGI (HL-60(TB) leukemia): > 100 µM
TGI (SK-MEL-28 melanoma): > 100 µM
TGI (OVCAR-4 ovarian): > 100 µM
TGI (SK-OV-3 ovarian): > 100 µM
TGI (HT29 colon): > 100 µM
TGI (MALME-3M melanoma): > 100 µM
TGI (SK-MEL-2 melanoma): > 100 µM
TGI (UACC-62 melanoma): > 100 µM
TGI (DMS 114 small cell lung): > 100 µM
TGI (KM12 colon): > 100 µM
TGI (M14 melanoma): > 100 µM
TGI (M19-MEL melanoma): > 100 µM
TGI (SF-295 CNS): > 100 µM
TGI (COLO 205 colon): > 100 µM
TGI (UACC-257 melanoma): > 100 µM
TGI (SW-620 colon): > 100 µM
TGI (OVCAR-5 ovarian): > 100 µM
TGI (RPMI-8226 leukemia): > 100 µM
TGI (NCI-H460 lung): > 100 µM
TGI (MOLT-4 leukemia): > 100 µM
TGI (HCT-15 colon): > 100 µM
TGI (SF-539 CNS): > 100 µM
TGI (NCI-H226 lung): > 100 µM
TGI (SN12C renal): > 100 µM
TGI (ACHN renal): > 100 µM
TGI (RXF 393 renal): > 100 µM
TGI (TK-10 renal): > 100 µM
TGI (CAKI-1 renal): > 100 µM

N#CCCN(CCC#N)c1ccc(/C=C2\N=C(c3cc([N+](=O)[O-])ccc3Cl)OC2=O)cc1
TGI (KM20L2 colon): > 100 µM
TGI (DMS 273 small cell lung): > 100 µM
TGI (SNB-75 CNS): > 100 µM
TGI (OVCAR-3 ovarian): 70.7 µM
TGI (IGROV1 ovarian): > 100 µM
TGI (LXFL 529 NSCLC): 49.3 µM
TGI (786-0 renal): > 100 µM
TGI (SR leukemia): 56.7 µM
TGI (HCT-116 colon): > 100 µM
TGI (LOX IMVI melanoma): 46.5 µM
TGI (K-562 leukemia): 40.7 µM
TGI (OVCAR-8 ovarian): 37.7 µM
TGI (SK-MEL-5 melanoma): 33.4 µM
TGI (SF-268 CNS): > 100 µM
TGI (HOP-62 NSCLC): 95.7 µM
TGI (A549 NSCLC): > 100 µM
TGI (UO-31 renal): > 100 µM
TGI (U251 CNS): 32.1 µM
TGI (NCI-H522 lung): 27.6 µM
TGI (HL-60(TB) leukemia): 67.3 µM
TGI (EKVX NSCLC): > 100 µM
TGI (SK-MEL-28 melanoma): > 100 µM
TGI (OVCAR-4 ovarian): 78.6 µM
TGI (SK-OV-3 ovarian): > 100 µM
TGI (HT29 colon): > 100 µM
TGI (MALME-3M melanoma): > 100 µM
TGI (SK-MEL-2 melanoma): 38.1 µM
TGI (UACC-62 melanoma): > 100 µM
TGI (XF 498 CNS): 86.2 µM
TGI (DMS 114 small cell lung): 47.9 µM
TGI (A498 renal): > 100 µM
TGI (KM12 colon): 28.2 µM
TGI (M14 melanoma): > 100 µM
TGI (M19-MEL melanoma): 45 µM
TGI (SNB-19 CNS): > 100 µM
TGI (SF-295 CNS): > 100 µM
TGI (UACC-257 melanoma): 44.1 µM
TGI (SW-620 colon): > 100 µM
TGI (OVCAR-5 ovarian): > 100 µM
TGI (RPMI-8226 leukemia): > 100 µM
TGI (NCI-H460 lung): > 100 µM
TGI (MOLT-4 leukemia): 57.7 µM
TGI (HCT-15 colon): > 100 µM
TGI (SF-539 CNS): > 100 µM
TGI (NCI-H226 lung): 44 µM
TGI (SN12C renal): 37.8 µM
TGI (ACHN renal): > 100 µM
TGI (HCC-2998 colon): 52.6 µM
TGI (CAKI-1 renal): > 100 µM

CC(=O)NNc1nc(C)c(C(=O)NNC(=O)C(=O)Nc2ccc(Cl)cc2)s1
TGI (KM20L2 colon): > 100 µM
TGI (NCI-H23 lung): > 100 µM
TGI (OVCAR-3 ovarian): > 100 µM
TGI (IGROV1 ovarian): > 100 µM
TGI (CCRF-CEM leukemia): > 100 µM
TGI (LXFL 529 NSCLC): > 100 µM
TGI (786-0 renal): > 100 µM
TGI (SR leukemia): > 100 µM
TGI (HCT-116 colon): > 100 µM
TGI (LOX IMVI melanoma): > 100 µM
TGI (K-562 leukemia): > 100 µM
TGI (OVCAR-8 ovarian): > 100 µM
TGI (SK-MEL-5 melanoma): > 100 µM
TGI (SF-268 CNS): > 100 µM
TGI (HOP-62 NSCLC): > 100 µM
TGI (A549 NSCLC): > 100 µM
TGI (UO-31 renal): > 100 µM
TGI (U251 CNS): > 100 µM
TGI (NCI-H522 lung): > 100 µM
TGI (HL-60(TB) leukemia): > 100 µM
TGI (EKVX NSCLC): > 100 µM
TGI (SK-MEL-28 melanoma): > 100 µM
TGI (OVCAR-4 ovarian): > 100 µM
TGI (SK-OV-3 ovarian): > 100 µM
TGI (HT29 colon): > 100 µM
TGI (MALME-3M melanoma): > 100 µM
TGI (SK-MEL-2 melanoma): > 100 µM
TGI (UACC-62 melanoma): > 100 µM
TGI (XF 498 CNS): > 100 µM
TGI (KM12 colon): > 100 µM
TGI (M14 melanoma): > 100 µM
TGI (M19-MEL melanoma): > 100 µM
TGI (SNB-19 CNS): > 100 µM
TGI (SF-295 CNS): > 100 µM
TGI (COLO 205 colon): > 100 µM
TGI (UACC-257 melanoma): > 100 µM
TGI (SW-620 colon): > 100 µM
TGI (HOP-92 NSCLC): > 100 µM
TGI (OVCAR-5 ovarian): > 100 µM
TGI (RPMI-8226 leukemia): > 100 µM
TGI (SNB-78 CNS): > 100 µM
TGI (NCI-H460 lung): > 100 µM
TGI (MOLT-4 leukemia): > 100 µM
TGI (HCT-15 colon): > 100 µM
TGI (SF-539 CNS): > 100 µM
TGI (NCI-H226 lung): > 100 µM
TGI (SN12C renal): > 100 µM
TGI (ACHN renal): > 100 µM
TGI (HCC-2998 colon): > 100 µM
TGI (TK-10 renal): > 100 µM
